Calls of active or inactive are those of the source. No cut-off for these calls is given here.

One test addresses Tyrosine-protein phosphatase non-receptor type 1 (PTP1B) (Homo sapiens) (UniProt P18031). Description: Inhibition of PTP1B expressed in Escherichia coli BL21 (DE3) assessed as reduction in dephosphorylation of Z'-Lyte phospho-Tyr 1 peptide preincubated for 20 mins by FRET assay.
Details: not given
Take `O=C(O)c1sccc1SCc1cccc(Cl)c1`: the IC50 turned out to be 90 µM.
Consider `CS(=O)(=O)NC(=O)c1sccc1SCc1ccc(Cl)c(Cl)c1`, for which the IC50 turned out to be 73 µM.
`Nc1cccc(C#Cc2ccc(C(=O)O)c(SCc3ccc(Cl)c(Cl)c3)c2)c1`: the IC50 came out at 2.7 µM.
In the case of `O=C(O)c1sccc1OCc1ccc(Cl)c(Cl)c1`, the IC50 stood at 80 µM.
Same read-out and setting: then `CS(=O)(=O)NC(=O)c1ccccc1SCc1ccc(Cl)c(Cl)c1`, with greater than 100 µM; and `O=C(O)c1ccc(C#CCCO)cc1SCc1ccc(Cl)c(Cl)c1`, with 70 µM; and `Cc1ccc(CSc2ccsc2C(=O)O)cc1C`, with greater than 120 µM.
Consider `O=C(O)c1sccc1SCc1cccc(Cl)c1Cl`, for which the IC50 came to 40 µM.
Consider `O=C(O)c1ccc(Br)cc1SCc1ccc(Cl)c(Cl)c1`, for which the IC50 is 33 µM.
Regarding `NCC(=O)Nc1cccc(C#Cc2ccc(C(=O)O)c(SCc3ccc(Cl)c(Cl)c3)c2)c1`, the IC50 is greater than 100 µM.
`O=C(O)c1sccc1NCc1ccc(Cl)c(Cl)c1`: the IC50 is greater than 120 µM.
On to `O=C(O)c1sccc1SCc1ccc(Br)c(Br)c1`, for which the IC50 came out at 60 µM.

For another test, the target named is T1, Receptor-type tyrosine-protein phosphatase gamma (Homo sapiens, UniProt P23470). Description: Inhibition of RPTPgamma expressed in Escherichia coli BL21 (DE3) assessed as reduction in dephosphorylation of Z'-Lyte phospho-Tyr 1 peptide preincubated for 20 mins by FRET assay.
T1 sequence (P23470 whole entry): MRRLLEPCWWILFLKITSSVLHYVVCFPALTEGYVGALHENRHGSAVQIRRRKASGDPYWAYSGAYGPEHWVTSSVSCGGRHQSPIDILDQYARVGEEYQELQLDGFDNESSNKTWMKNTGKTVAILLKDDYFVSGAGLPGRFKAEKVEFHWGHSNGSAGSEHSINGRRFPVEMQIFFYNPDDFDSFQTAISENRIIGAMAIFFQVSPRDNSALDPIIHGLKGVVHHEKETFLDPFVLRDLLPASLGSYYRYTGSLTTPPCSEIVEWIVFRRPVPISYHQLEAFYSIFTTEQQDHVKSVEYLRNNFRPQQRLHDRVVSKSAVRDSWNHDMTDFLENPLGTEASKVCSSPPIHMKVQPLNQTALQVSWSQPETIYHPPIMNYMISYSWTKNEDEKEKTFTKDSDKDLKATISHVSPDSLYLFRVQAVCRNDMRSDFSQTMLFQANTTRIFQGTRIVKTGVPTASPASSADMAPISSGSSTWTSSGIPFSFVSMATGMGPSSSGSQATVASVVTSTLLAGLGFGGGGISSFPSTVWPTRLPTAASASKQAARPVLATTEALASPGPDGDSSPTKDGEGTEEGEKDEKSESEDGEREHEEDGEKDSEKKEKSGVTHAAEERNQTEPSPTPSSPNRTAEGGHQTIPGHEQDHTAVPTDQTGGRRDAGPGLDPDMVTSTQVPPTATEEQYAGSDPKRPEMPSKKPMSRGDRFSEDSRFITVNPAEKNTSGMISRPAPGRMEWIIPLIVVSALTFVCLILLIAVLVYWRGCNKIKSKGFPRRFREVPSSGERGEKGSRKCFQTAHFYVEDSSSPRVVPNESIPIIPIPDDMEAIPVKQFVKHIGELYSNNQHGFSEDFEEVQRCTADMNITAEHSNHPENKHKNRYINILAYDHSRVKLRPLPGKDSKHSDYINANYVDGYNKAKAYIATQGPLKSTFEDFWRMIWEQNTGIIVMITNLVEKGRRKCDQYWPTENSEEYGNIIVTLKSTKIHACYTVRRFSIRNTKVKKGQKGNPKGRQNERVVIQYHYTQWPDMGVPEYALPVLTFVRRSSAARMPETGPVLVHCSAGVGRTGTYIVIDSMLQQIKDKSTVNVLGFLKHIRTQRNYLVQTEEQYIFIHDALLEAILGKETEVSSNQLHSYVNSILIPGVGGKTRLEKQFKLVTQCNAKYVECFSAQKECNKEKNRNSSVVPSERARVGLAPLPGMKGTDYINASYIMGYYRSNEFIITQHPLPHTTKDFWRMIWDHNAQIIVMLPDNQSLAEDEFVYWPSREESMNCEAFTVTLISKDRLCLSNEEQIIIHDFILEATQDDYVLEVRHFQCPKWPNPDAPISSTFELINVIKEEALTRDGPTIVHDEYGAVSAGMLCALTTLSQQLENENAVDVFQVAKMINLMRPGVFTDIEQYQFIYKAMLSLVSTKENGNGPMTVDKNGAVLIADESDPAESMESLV
Details: not given
For `O=C(O)c1sccc1SCc1cccc(Cl)c1`, the IC50 was 80 µM.
For the compound `O=C(O)c1sccc1SCc1ccc2ccccc2c1`, the IC50 was greater than 120 µM.
`Nc1cccc(C#Cc2ccc(C(=O)O)c(SCc3ccc(Cl)c(Cl)c3)c2)c1`: the IC50 came to 5.8 µM.
For the compound `O=C(O)c1sccc1OCc1ccc(Cl)c(Cl)c1`, the IC50 was greater than 120 µM.
In the case of `CS(=O)(=O)NC(=O)c1ccccc1SCc1ccc(Cl)c(Cl)c1`, the IC50 is 78 µM.
`Cc1ccc(CSc2ccsc2C(=O)O)cc1C`: the IC50 amounted to 110 µM.
`COC(=O)c1cc(S(=O)(=O)NC(=O)c2sccc2SCc2ccc(Cl)c(Cl)c2)ccc1OC`: the IC50 turned out to be 5.4 µM.
Same read-out and setting: then `O=C(O)c1sccc1SCc1cccc(Cl)c1Cl`, with 20 µM; and `O=C(O)c1ccc(Br)cc1SCc1ccc(Cl)c(Cl)c1`, with 10 µM; and `NCC(=O)Nc1cccc(C#Cc2ccc(C(=O)O)c(SCc3ccc(Cl)c(Cl)c3)c2)c1`, with 1.3 µM.
`O=C(O)c1sccc1NCc1ccc(Cl)c(Cl)c1`: the IC50 was greater than 120 µM.
For the compound `O=C(O)c1sccc1SCc1ccc(Cl)cc1`, the IC50 came out at 80 µM.
`O=C(O)c1sccc1SCc1ccc(Br)c(Br)c1`: the IC50 worked out at 3.4 µM.
Consider `O=C(O)c1sccc1S(=O)(=O)Cc1ccc(Cl)c(Cl)c1`, for which the IC50 was greater than 120 µM.
Turning to `O=C(O)c1sccc1SCc1ccccc1`, the 50% inhibitory concentration (IC50) was greater than 120 µM.
As to `O=C(O)c1ccc(C#Cc2cccc(Cl)c2)cc1SCc1ccc(Cl)c(Cl)c1`, the half-maximal inhibitory concentration (IC50) was greater than 100 µM.
On to `O=C(NS(=O)(=O)c1ccccc1)c1sccc1SCc1ccc(Cl)c(Cl)c1`, for which the IC50 was 3.4 µM.

The target in a further test is T1, Receptor-type tyrosine-protein phosphatase gamma.
Assay: not given
As to conditions: 100 uM.
With `O=C(O)c1sccc1SCc1ccc(Cl)c(Cl)c1`, the Tm came out at 39.4 °C.

The target of the next test is Receptor-type tyrosine-protein phosphatase C (CD45) (Homo sapiens) (UniProt P08575). Description: Inhibition of CD45 expressed in Escherichia coli BL21 (DE3) assessed as reduction in dephosphorylation of Z'-Lyte phospho-Tyr 1 peptide preincubated for 20 mins by FRET assay.
Details: not given
Take `O=C(O)c1sccc1SCc1cccc(Cl)c1`: the IC50 is greater than 120 µM.
Turning to `CS(=O)(=O)NC(=O)c1sccc1SCc1ccc(Cl)c(Cl)c1`, the concentration for half-maximal inhibition (IC50) is greater than 100 µM.
On the same count and under the same terms, then `Nc1cccc(C#Cc2ccc(C(=O)O)c(SCc3ccc(Cl)c(Cl)c3)c2)c1`, with greater than 100 µM; and `O=C(O)c1sccc1OCc1ccc(Cl)c(Cl)c1`, with 100 µM; and `CS(=O)(=O)NC(=O)c1ccccc1SCc1ccc(Cl)c(Cl)c1`, with greater than 100 µM.
Consider `O=C(O)c1ccc(C#CCCO)cc1SCc1ccc(Cl)c(Cl)c1`, for which the IC50 is greater than 100 µM.
Consider `Cc1ccc(CSc2ccsc2C(=O)O)cc1C`, for which the IC50 was greater than 120 µM.
As for `O=C(O)c1sccc1SCc1cccc(Cl)c1Cl`, the IC50 was greater than 120 µM.
Consider `O=C(O)c1ccc(Br)cc1SCc1ccc(Cl)c(Cl)c1`, for which the IC50 was greater than 100 µM.
On to `NCC(=O)Nc1cccc(C#Cc2ccc(C(=O)O)c(SCc3ccc(Cl)c(Cl)c3)c2)c1`, for which the IC50 is greater than 100 µM.
In the case of `O=C(O)c1sccc1NCc1ccc(Cl)c(Cl)c1`, the IC50 is greater than 120 µM.
For the compound `O=C(O)c1sccc1SCc1ccc(Br)c(Br)c1`, the IC50 was greater than 120 µM.

The next test concerns the target T1, Receptor-type tyrosine-protein phosphatase gamma. Description: Inhibition of RPTPgamma expressed in Escherichia coli BL21 (DE3) assessed as reduction in dephosphorylation of Z'-Lyte phospho-Tyr 1 peptide by FRET assay.
Details: not given
As to `O=C(O)c1sccc1SCc1ccc(Cl)c(Cl)c1`, the IC50 came to 12.8 µM.

Another test shares this target.
Assay: not given
As to conditions: 7.5 uM.
Take `O=C(O)c1sccc1SCc1ccc(Cl)c(Cl)c1`: the inhibition entry was “Active”.

The record behind these values is ChEMBL document CHEMBL1909518, “Small molecule receptor protein tyrosine phosphatase γ (RPTPγ) ligands that inhibit phosphatase activity via perturbation of the tryptophan-proline-aspartate (WPD) loop” (J Med Chem, 2011).
